The record followed here is patent US11046700B2, “Substituted imidazo[1,2-a]pyrazines, pyrazolo[1,5-c]pyrimidines, pyrazolo[1,5-a]pyridines, and purines for the treatment of schistosomiasis” (Merck Patent GmbH, priority 2017, dated 2021).

Where only a bound is given, the exact number is not on record here.

One series has as its system HepG2 cell line. Kind of series: Cytotoxicity against human HepG2 cell lines. The format is cell-based.
Series [1] relates to S. mansoni adult worms. Kind of series: In vitro assay, S. mansoni adult worms. To be noted: Schistosoma mansoni; S. mansoni adult worms, in vitro; read-out: (a) Adult. The class given is cell-based.
The test system of series [2] is S. mansoni juvenile worms. Description: In vitro assay, S. mansoni juvenile worms. The format is cell-based. Conditions: Schistosoma mansoni; S. mansoni juvenile worms, in vitro; read-out: (b) Juvenile.
For a further series, the system named is MRC-5 cells. Kind of series: Cytotoxicity against human MRC-5 cell line. The class given is cell-based. As to the method:
The routine biological assays using adult or juvenile worms and cytotoxicity assays using MRC-5 cells have been disclosed previously in Mansour, N. R., et al. (2016). “High Throughput Screening Identifies Novel Lead Compounds with Activity against Larval, Juvenile and Schistosoma mansoni PLoS Negl Trap Dis 10(4): e0004659. Cytotoxicity assays using the HepG2 cell line were carried out as described in Molecular Diversity (2015) 19, 251-261.
(d) Cytotoxicity against human MRC-5 cell line

For series [3], the system named is S. mansoni juvenile worms. Description: Mouse infection model, juvenile worms, oral treatment day 25 post infection, worm recovery. The class given is in vivo, Schistosoma mansoni. Conditions: mice. As for the experimental part: (§1) Methods for the subcutaneous infection of mice and subsequent worm recovery were as described in Mansour et al (2016) except that infection was with 150 cercariae and the perfusion medium was citrate saline (0.9% sodium chloride, 1.5% tri-sodium citrate). Perfusion was carried out 8 days (adult infections) or 15 days (juvenile infections) after treatment. Perfuseate was collected into 30 mL universal tubes. RBC (Red Blood Cells) were removed by allowing the perfuseate to settle for 10 min, removal of most of the supernatant and washing once as above with 10 mL perfusion medium. A drop of dilute aqueous saponin solution was added to lyse any remaining RBC and the worm suspension poured into a grid-marked small petri dish. The tube was rinsed out into the petri dish and examined for any remaining worms. Worms were counted using a dissecting microscope. The mouse livers removed after perfusion were squashed between two thick glass plates and examined visually and any remaining worms added to those counted as above.
(§2) For testing efficacy against the juvenile worms, treatment was on day 25 post infection and for testing against the adult worms on day 42 post infection. Drugs were suspended in 7% Tween-80/3% Ethanol/double distilled water and drug dispersal was facilitated by vortexing and using a sonicating water bath (Formulation F1). Alternatively, drugs were suspended in 10% DMSO, 90% double distilled water containing 50 mM Na2HPO4 with 0.5% Tween-80 by first dissolving or suspending the drug in DMSO then adding the DMSO solution/suspension to the aqueous solution (Formulation F2). In a further set of conditions, drugs were first dissolved in DMSO, then diluted with corn oil to give a 5% DMSO+drug solution/suspension (Formulation F3)
(§3) The drug solution/suspensions were given by oral gavage at the rate of 10 ml/kg. Positive controls (artemether for juvenile worms and praziquantel for adult worms) were used in each experiment.

Series [4] deals with S. mansoni adult worms. Kind of series: Mouse infection model, adult worms, oral treatment day 42 post infection, worm recovery. Conditions: mice. The format is in vivo, Schistosoma mansoni. As to the method: as §1, §2, §3
The mark [5] stands for this setting: oral 50 mg/kg, Formulation F1, negative control 33.0 ± 7.2.
The mark [6] stands for this setting: oral 5 mg/kg, Formulation F2, negative control 33.2 ± 9.09.
Setting [7] is: oral 6.25 mg/kg, Formulation F3, negative control 32.6 ± 10.6.
The mark [8] stands for this setting: oral 25 mg/kg, Formulation F2, negative control 33.2 ± 9.09.
Where [9] appears, read: oral 50 mg/kg, Formulation F3, negative control 32.8 ± 14.
[10] abbreviates: oral 25 mg/kg, Formulation F1, negative control 33.2 ± 9.09.
Where [11] appears, read: oral 6.25 mg/kg, Formulation F1, negative control 33.8 ± 4.1.
The mark [12] stands for this setting: oral 12.5 mg/kg, Formulation F1, negative control 33.8 ± 4.1.
Setting [13] is: oral 50 mg/kg, Formulation F1, negative control 33.2 ± 9.09.
The mark [14] stands for this setting: oral 50 mg/kg, Formulation F1, negative control 33.8 ± 4.1.
Setting [15] is: oral 100 mg/kg, Formulation F1, negative control 33.8 ± 4.1.
The mark [16] stands for this setting: oral 400 mg/kg, Formulation F1, negative control 33.8 ± 4.1.
Setting [17] is: oral 400 mg/kg, Formulation F1, negative control 38.8 ± 5.4.
Where [18] appears, read: oral 400 mg/kg, Formulation F1, negative control 33.0 ± 7.2.
Where [19] appears, read: oral 400 mg/kg, Formulation F1, negative control 33.2 ± 9.09.

As for `CC(C)c1nc2cnc(-c3cccc(C(F)(F)F)c3)cn2c1-c1ccc(O)cc1F` [Example 9, 3-fluoro-4-[2-(propan-2-yl)-6-[3-(trifluoromethyl)phenyl]imidazo[1,2-a]pyrazin-3-yl]phenol], in the series on HepG2 cell line, the “(e) Cytotox HepG2” value is 9 µM. Besides, the values for the IC50 (in the series on S. mansoni adult worms [1]; in series [2]) were 76 nM and 79 nM, respectively. In addition, the “(d) Cytotox MRC-5” value in the series with MRC-5 cells came out at 13.7 µM.
For `Fc1ccc(-c2cn3c(-c4ccc5[nH]ncc5c4F)c(C4CC4)nc3cn2)cc1C(F)(F)F` [Example 32], the “(e) Cytotox HepG2” value with HepG2 cell line came to 16.1 µM. The IC50 in the series with S. mansoni adult worms [1] worked out at 63 nM. Further, in series [3] (setting [5]), the Mean worm recovery was determined as 29.0 ± 7.9 and the Percent worm reduction is on record as 12%.
As for `CCc1nc2cnc(-c3cccc(C(F)(F)F)c3)cn2c1-c1ccc(OC)c(O)c1` [Example 7, 2-methoxy-5-[2-ethyl-6-[3-(trifluoromethyl)phenyl]imidazo[1,2-a]pyrazin-3-yl]phenol], the “(e) Cytotox HepG2” value in the series on HepG2 cell line is above 30 µM. Also, the IC50 in the series on S. mansoni adult worms [1] came to 90 nM; in series [2] it was 82 nM. Besides, the “(d) Cytotox MRC-5” value in the series with MRC-5 cells was above 50 µM.
Take `Fc1c(-c2c(C(F)(F)F)nc3cnc(-c4cccc(C(F)(F)C(F)(F)F)c4)cn23)ccc2[nH]ncc12` [Example 29, 4-fluoro-5-{2-trifluoromethyl-6-[3-(pentafluoroethyl)phenyl]imidazo[1,2-a]pyrazin-3-yl}-1H-indazole]: the “(e) Cytotox HepG2” value with HepG2 cell line came to 8.9 µM. Moreover, the IC50 is 30 nM with S. mansoni adult worms [1] and 28 nM in series [2]. Also, the Mean worm recovery was 14.8 ± 6.61 in series [3] (setting [6]), 2.0 ± 2.6 in series [3] (setting [7]) and 4 ± 1.41 in series [3] (setting [8]). Moreover, the Percent worm reduction in series [3] (setting [6]) is recorded as 55%; in series [3] (setting [7]), 94%; in series [3] (setting [8]) it was 88%.
Regarding `CC(C)c1cc(-c2cn3c(-c4ccc5[nH]ncc5c4F)c(C(F)(F)F)nc3cn2)ccc1F` [Example 67, 3-(4-Fluoro-1H-indazol-5-yl)-6-(4-fluoro-3-isopropyl-phenyl)-2-trifluoromethyl-imidazo[1,2-a]pyrazine], the “(e) Cytotox HepG2” value with HepG2 cell line was determined as 17.0 µM. Besides, in the series on S. mansoni adult worms [1], the IC50 came out at 2 nM. Further, the IC50 in series [2] was 2 nM. Further, in series [3] (setting [9]), the Mean worm recovery was found to be 0 and the Percent worm reduction was determined as 100%.
As for `CC(C)c1nc2cnc(-c3ccc(F)c(C(F)(F)F)c3)cn2c1-c1ccc2[nH]ncc2c1F` [Example 2, 4-fluoro-5-{6-[4-fluoro-3-(trifluoromethyl)phenyl]-2-(propan-2-yl)imidazo[1,2-a]pyrazin-3-yl}-1H-indazole], the “(e) Cytotox HepG2” value with HepG2 cell line was found to be 10.4 µM. The IC50 with S. mansoni adult worms [1] came out at 47 nM; in series [2], 19 nM. In addition, the Mean worm recovery in series [3] (setting [10]) was 7.2 ± 3.9; in series [3] (setting [8]), 4.4 ± 3.91; in series [3] (setting [5]), 4.0 ± 4.1. For the same compound, the Percent worm reduction in series [3] (setting [10]) is listed as 78%; in series [3] (setting [8]), 87%; in series [3] (setting [5]) it was 88%.
Take `Fc1ccc(-c2cn3c(-c4ccc5[nH]ncc5c4F)c(C(F)(F)F)nc3cn2)cc1C(F)(F)F` [Example 50, 3-(4-Fluoro-1H-indazol-5-yl)-6-(4-fluoro-3-trifluoromethylphenyl)-2-trifluoromethyl-imidazo[1,2-a]pyrazine]: the IC50 in series [2] worked out at 60 nM. The Mean worm recovery in series [3] (setting [7]) turned out to be 17.6 ± 12.0; in series [3] (setting [10]) it was 0.8 ± 0.84; in the series on S. mansoni adult worms [4] (setting [11]), 7.4 ± 8.1; in the series on S. mansoni adult worms [4] (setting [12]), 0.2. In addition, the Percent worm reduction turned out to be 46% in series [3] (setting [7]), 98% in series [3] (setting [10]), 78% with S. mansoni adult worms [4] (setting [11]) and 99% in the series on S. mansoni adult worms [4] (setting [12]).
Take `CCc1nc2cnc(-c3ccc(F)c(C(F)(F)C(F)(F)F)c3)cn2c1-c1c(F)cc(O)cc1F` [Example 45, 4-{2-ethyl-6-[4-fluoro-3-(1,1,2,2,2-pentafluoroethyl)phenyl]imidazo[1,2-a]pyrazin-3-yl}-3,5-difluorophenol]: the IC50 in series [2] was found to be 21 nM. Also, in series [3] (setting [10]), the Mean worm recovery came to 31.8 ± 5.76 and the Percent worm reduction was 4%.
On to `Cc1nc2cnc(-c3cccc(C(F)(F)F)c3)cn2c1-c1ccc(O)cc1F` [Example 6, 3-fluoro-4-[2-methyl-6-[3-(trifluoromethyl)phenyl]imidazo[1,2-a]pyrazin-3-yl]phenol], for which the IC50 came out at 290 nM in the series with S. mansoni adult worms [1] and 480 nM in series [2]. For the same compound, the “(d) Cytotox MRC-5” value in the series on MRC-5 cells was determined as 15.8 µM.
On to `Oc1cc(F)c(-c2c(C3CC3)nc3cnc(-c4ccc(F)c(C(F)(F)F)c4)cn23)c(F)c1` [Example 34, 4-(2-cyclopropyl-6-(4-fluoro-3-(trifluoromethyl)phenyl)imidazo[1,2-a]pyrazin-3-yl)-3,5-difluorophenol], for which, in the series with HepG2 cell line, the “(e) Cytotox HepG2” value is 8.9 µM. Further, the IC50 was 69 nM in the series on S. mansoni adult worms [1] and 88 nM in series [2]. Also, the Mean worm recovery in series [3] (setting [5]) is listed as 24.8 ± 7.4. Also, the Percent worm reduction in series [3] (setting [5]) is reported as 25%.
In the case of `O=C(C1CCCCC1)N1CC(=O)N2CCc3ccccc3C2C1` (stereo not drawn) [Praziquantel, praziquantel], the Mean worm recovery was determined as 26.2 ± 9.44 in series [3] (setting [13]); 29.8 ± 8.4 in the series with S. mansoni adult worms [4] (setting [14]); 12.2 ± 6.3 in the series with S. mansoni adult worms [4] (setting [15]); 2.6 ± 1.5 in the series on S. mansoni adult worms [4] (setting [16]); 2.3 ± 1.7 with S. mansoni adult worms [4] (setting [17]). Further, the Percent worm reduction is recorded as 21% in series [3] (setting [13]); 13% in the series with S. mansoni adult worms [4] (setting [14]); 64% with S. mansoni adult worms [4] (setting [15]); 92% in the series on S. mansoni adult worms [4] (setting [16]); 94% in the series on S. mansoni adult worms [4] (setting [17]).
For `Fc1c(-c2c(C(F)(F)F)nc3cnc(-c4ccnc(C(F)(F)F)c4)cn23)ccc2[nH]ncc12` [Example 88, 3-(4-Fluoro-1H-indazol-5-yl)-2-trifluoromethyl-6-(2-trifluoromethyl-pyridin-4-yl)-imidazo[1,2-a]pyrazine], in the series with HepG2 cell line, the “(e) Cytotox HepG2” value came to 7.0 µM. Also, the IC50 turned out to be 116 nM with S. mansoni adult worms [1] and 140 nM in series [2].
On to `CO[C@H]1O[C@@H]2O[C@@]3(C)CC[C@H]4[C@H](C)CC[C@@H]([C@H]1C)[C@@]24OO3` [Artemether, artemether, reference compound], for which, in series [3] (setting [18]), the Mean worm recovery stood at 8.2 ± 4.1 and the Percent worm reduction is given as 75%. In series [3] (setting [19]), this compound returned a Mean worm recovery of 8.6 ± 4.16 and a Percent worm reduction of 74%.
Consider `Oc1cc(F)c(-c2c(C3CCC3)nc3cnc(-c4ccc(F)c(C(F)(F)F)c4)cn23)c(F)c1` [Example 35, 4-(2-cyclobutyl-6-(4-fluoro-3-(trifluoromethyl)phenyl)imidazo[1,2-a]pyrazin-3-yl)-3,5-difluorophenol], for which the “(e) Cytotox HepG2” value with HepG2 cell line came to 5.7 µM. Further, the IC50 with S. mansoni adult worms [1] stood at 59 nM; in series [2] it was 73 nM.
`CC(C)c1nn2cnc(-c3ccc(F)c(C(F)(F)F)c3)cc2c1-c1c(F)cc(O)cc1F` [Example 47, 3,5-difluoro-4-(5-(4-fluoro-3-(trifluoromethyl)phenyl)-2-isopropylpyrazolo[1,5-c]pyrimidin-3-yl)phenol]: in the series on HepG2 cell line, the “(e) Cytotox HepG2” value was 8.9 µM. For the same compound, the IC50 with S. mansoni adult worms [1] worked out at 22 nM; in series [2], 27 nM.
For `Oc1cc(F)c(-c2c(C3CC3)nc3cnc(-c4ccc(F)c(S(F)(F)(F)(F)F)c4)cn23)c(F)c1` [Example 56, 4-[2-Cyclopropyl-6-(4-fluoro-3-pentafluorosulfanyl-phenyl)-imidazo[1,2-a]pyrazin-3-yl]-3,5-difluoro-phenol] the same measures were 10.1 µM, 19 nM and 20 nM.
